Assay results reported in ChEMBL document CHEMBL4842322, “A naphthalimide-polyamine conjugate preferentially accumulates in hepatic carcinoma metastases as a lysosome-targeted antimetastatic agent” (Eur J Med Chem, 2021).
Calls of active or inactive are those of the source. No cut-off for these calls is given here.

How the values were obtained:
[1] = tested on: Huh-7; assay: Downregulation of Spermidine contents in human Huh-7 cells measured after 24 hrs by HPLC analysis; assay type: functional, cell-based
[2] = tested on: Huh-7; assay: Downregulation of Spermine contents in human Huh-7 cells measured after 24 hrs by HPLC analysis; assay type: functional, cell-based
[3] = tested on: HepG2; assay: Induction of apoptosis in human HepG2 cells assessed as induction of DNA damage by measuring upregulation of gammaH2AX expression at 5 to 15 uM; assay type: functional, cell-based; conditions: dose 5-15 µM
[4] = Antitumor activity against human HCC cells xenografted in BALB/c mouse assessed as tumor volume administered iv once daily for 7 days measured on day 7 (reference value: 910 mm3); assay type: functional; conditions: time 7 day
[5] = Toxicity in BALB/c mouse xenografted with human HCC cells assessed as body weight at 1 to 5 mg/kg, iv administered once daily for 7 days; assay type: organism-based; conditions: in vivo, 168 h, dose 1-5 mg/kg, time 7 day
[6] = Toxicity in BALB/c mouse xenografted with human HCC cells assessed as effect on heart weight index at 1 to 5 mg/kg, iv administered once daily for 7 days; assay type: organism-based; conditions: in vivo, 168 h, dose 1-5 mg/kg, time 7 day
[7] = Toxicity in BALB/c mouse xenografted with human HCC cells assessed as effect on liver weight index at 1 to 5 mg/kg, iv administered once daily for 7 days; assay type: organism-based; conditions: in vivo, 168 h, dose 1-5 mg/kg, time 7 day
[8] = Toxicity in BALB/c mouse xenografted with human HCC cells assessed as effect on spleen weight index at 1 to 5 mg/kg, iv administered once daily for 7 days; assay type: organism-based; conditions: in vivo, 168 h, dose 1-5 mg/kg, time 7 day
[9] = Toxicity in BALB/c mouse xenografted with human HCC cells assessed as effect on kidney weight index at 1 to 5 mg/kg, iv administered once daily for 7 days; assay type: organism-based; conditions: in vivo, 168 h, dose 1-5 mg/kg, time 7 day
[10] = Toxicity in BALB/c mouse xenografted with human HCC cells assessed as effect on lung weight index at 1 to 5 mg/kg, iv administered once daily for 7 days; assay type: organism-based; conditions: in vivo, 168 h, dose 1-5 mg/kg, time 7 day
[11] = Toxicity in BALB/c mouse xenografted with human HCC cells assessed as effect on body weight at 1 to 5 mg/kg, iv administered once every 2 days for 14 days; assay type: organism-based; conditions: in vivo, 336 h, dose 1-5 mg/kg, time 14 day
[12] = Drug uptake in endoplasmic reticulum of human HepG2 cells at 10 uM incubated for 8 hrs by ER-tarcker dye based laser confocal microscopy; assay type: ADME, subcellular; conditions: hepg2, 8 h
[13] = Drug uptake in mitochondria of human HepG2 cells at 10 uM incubated for 8 hrs by Mito-tarcker dye based laser confocal microscopy; assay type: ADME; conditions: hepg2, 8 h
[14] = Drug uptake in golgi apparatus of human HepG2 cells at 10 uM incubated for 8 hrs by Golgi-tracker dye based laser confocal microscopy; assay type: ADME, subcellular, Golgi body; conditions: hepg2, 8 h
[15] = Drug uptake in lysosomes of human HepG2 cells at 10 uM incubated for 8 hrs by Lyso-tracker dye based laser confocal microscopy; assay type: ADME, subcellular, Lysosome; conditions: hepg2, 8 h
[16] = tested on: A549; assay: Inhibition of tumor metastasis in cisplatin-resistant human A549 cells assessed as downregulation of HMGB1 protein expression level measured after 24 hrs by western blot analysis; assay type: functional, cell-based; conditions: dose 5-15 µM
[17] = tested on: A549; assay: Inhibition of tumor metastasis in cisplatin-resistant human A549 cells assessed as downregulation of LC3-II protein expression level at 5 to 15 uM measured after 24 hrs by western blot analysis; assay type: functional, cell-based; conditions: dose 5-15 µM
[18] = tested on: A549; assay: Inhibition of tumor metastasis in cisplatin-resistant human A549 cells assessed as upregulation of LC3-I protein expression level at 5 to 15 uM measured after 24 hrs by western blot analysis; assay type: functional, cell-based; conditions: dose 5-15 µM
[19] = tested on: HepG2; assay: Inhibition of tumor metastasis in human HepG2 cells assessed as upregulation of p53 gene expression level at 5 to 15 uM measured after 24 hrs by qRT-PCR analysis; assay type: functional, cell-based; conditions: dose 5-15 µM
[20] = tested on: HepG2; assay: Inhibition of tumor metastasis in human HepG2 cells assessed as upregulation of SSAT protein expression level at 5 to 15 uM measured after 24 hrs by western blot analysis; assay type: functional, cell-based; conditions: dose 5-15 µM
[21] = tested on: A549; assay: Inhibition of tumor metastasis in cisplatin-resistant human A549 cells assessed as upregulation of p62 protein expression level at 5 to 15 uM measured after 24 hrs by western blot analysis; assay type: functional, cell-based; conditions: dose 5-15 µM
[22] = tested on: HepG2; assay: Potency index, ratio of amonafide IC50 to test compound IC50 for human HepG2 cells by MTT assay; assay type: functional
[23] = tested on: HepG2; assay: Potency index, ratio of cisplatin IC50 to test compound IC50 for human HepG2 cells by MTT assay; assay type: functional
[24] = tested on: Huh-7; assay: Potency index, ratio of amonafide IC50 to test compound IC50 for human Huh-7 cells by MTT assay; assay type: functional
[25] = tested on: Huh-7; assay: Potency index, ratio of cisplatin IC50 to test compound IC50 for human Huh-7 cells by MTT assay; assay type: functional
[26] = Ratio of amonafide IC50 to test compound IC50 for human MDA-MB-231 cells by MTT assay; assay type: functional
[27] = tested on: MDA-MB-231; assay: Potency index, ratio of cisplatin IC50 to test compound IC50 for human MDA-MB-231 cells by MTT assay; assay type: functional
[28] = Ratio of amonafide IC50 to test compound IC50 for human MCF7 cells by MTT assay; assay type: functional
[29] = Ratio of cisplatin IC50 to test compound IC50 for human MCF7 cells by MTT assay; assay type: functional
[30] = tested on: A549; assay: Potency index, ratio of amonafide IC50 to test compound IC50 for human A549 cells by MTT assay; assay type: functional
[31] = Ratio of cisplatin IC50 to test compound IC50 for human A549 cells by MTT assay; assay type: functional
[32] = Ratio of amonafide IC50 to test compound IC50 for cisplatin-resistant human A549 cells by MTT assay; assay type: functional
[33] = Potency index, ratio of cisplatin IC50 to test compound IC50 for cisplatin-resistant human A549 cells by MTT assay; assay type: functional

With NCCCCNCCCCNCCCCN1C(=O)c2cccc3cc(NC(=O)CN)cc(c23)C1=O the inhibition [1] was “Active”, the inhibition [2] was “Active” and the Activity [3] was “Active”. For the same molecule, the Activity [4] was 400 mm3, the Activity [5] was “Non-Toxic” and the Activity [6] was “Non-Toxic”. The Activity [7] was “Non-Toxic”, the Activity [8] was “Non-Toxic” and the Activity [9] was “Non-Toxic”. The Activity [10] was “Non-Toxic”, the Activity [11] was “Non-Toxic” and the Drug uptake [12] was “Not Active”. The Drug uptake [13] was “Not Active”, the Drug uptake [14] was “Not Active” and the Drug uptake [15] was “Active”. For the same molecule, the inhibition [16] was “Dose-Dependent Effect”, the inhibition [17] was “Active” and the inhibition [18] was “Active”. For the same molecule, the inhibition [19] was “Active”, the inhibition [20] was “Active” and the inhibition [21] was “Active”. For the same molecule, the “Ratio IC50” value [22] was 7.1, the “Ratio IC50” value [23] was 6.74 and the “Ratio IC50” value [24] was 8.69. The “Ratio IC50” value [25] was 15.33, the “Ratio IC50” value [26] was 0.99 and the “Ratio IC50” value [27] was 2.11. For the same molecule, the “Ratio IC50” value [28] was 0.67, the “Ratio IC50” value [29] was 0.59 and the “Ratio IC50” value [30] was 1.15. For the same molecule, the “Ratio IC50” value [31] was 0.5, the “Ratio IC50” value [32] was 0.62 and the “Ratio IC50” value [33] was 2.76.
